Source: patent publication US8324173B2, “Peptides useful as dual caspase-2/-6 inhibitors and their biological applications” (Chiesi Farmaceutici S.p.A., priority 2004, dated 2012)
One block for each molecule: values may come before it. Peptide text beside a SMILES is read from it. * marks the point of attachment. code Z = not defined here; CH2F = FC*

Assays:
[1] = system: global cerebral ischemia, hippocampus CA1 cell death; assay: Global cerebral ischemia by four-vessel occlusion (4VO) in young-adult rats; format: in vivo, rat; conditions: single i.c.v. 60 ng, 72 h post-ischemia
Protocol: Global cerebral ischemia was induced by four-vessel occlusion (4V0) according a Pulsinelli's derived method (Pulsinelli and Buchman, 1988) in young-adult rats (males Wistar aged of 10-12 weeks, 320 g+/−10 g; Janvier). The first day, head of anesthetised rats was positionned in stereotaxic ear bars and tilted down at approximatively 30° to the horizontal. After a midline incision at the level of cervical spine, both vertebral arteries were exposed under microscope and then coagulated by electocautery needle through the alar foramina at the level of first cervical vertebra. Both common carotides were then exposed 24 h later and clamped for 20-30 min (rats fell in the coma when electrocautherisation of both vertebral arteries have been well performed). Carotid arteries were then declamped to allow blood flow reperfusion. Vehicle and SEQ8 were administrated at the level of the left cerebral ventricule in the first fifth minutes of ischemia (carotides occlusion). Rats were let in their cage with waer et food ad libitum.
The selective loss of vulnerable cells and SEQ8's effects have been evaluated at 72 h. Rats were sacrificed and brain fixed by trans-cardiac perfusion with paraformaldehyde. Frontal brain slices (25 μm) were strained by Cresyl-Violet or co-stained by Hoechst 33342 and Fluorojade B to assess cell death in the hippocampus and in the cortex. […] Fluoro JadeB (green fluorescence) intake is possible only in cells which have permeable plasma membrane, thus more characteristic of dying cells. Hoechst 33342 (blue fluorescence) label nuclei all cells and allows to appreciate nuclear morphology changes during cell death. Cells are counted in three successive slices at such levels in the hippocampus (CA1) in the left brain hemisphere. […] Both Fluoro Jade B and Hoechst stained slices were observed under a Leica DMIRB inverted fluorescence microscope equipped with ×40 objective and LEICA IM1000/Qfluorobase software (BP 340-80 excitation filter combined with LP 425 emission filter for Hoechst; BP 480/40 excitation filter combined with BP 515-560 emission filter for Fluoro Jade B).

[2] = target: T1, human recombinant caspase-2 (Homo sapiens, UniProt P42575); assay: In vitro caspase-2 cleavage assay (Ac-VDVAD-AMC substrate); format: biochemical; parameters: key to Group (pattern of caspase-2 inhibition curve): group 1 referred to inhibitors that were relatively more active than VDVAD(SEQ ID NO:9)-based inhibitors against caspase-2 at lower doses, but with similar IC50 values; group 2 referred to VDVAD(SEQ ID NO:9)-based inhibitor with characteristic sigmoid dose-response; group 3 referred to pentapetidic-based inhibitors that were less active than VDVAD(SEQ ID NO:9)-based inhibitors against caspase-2 at lower doses and that exhibited higher IC50; conditions: for VDVAD-AMC cleavage by caspase-2: recombinant caspase-2, FIG. 16; for Group (pattern of caspase-2 inhibition curve) / IC50: Table 4; for IC50: 30 min pre-incubation, 2 h at 37° C.
T1 construct: purchased BIOMOL
T1 sequence (P42575 170-333 limits assumed): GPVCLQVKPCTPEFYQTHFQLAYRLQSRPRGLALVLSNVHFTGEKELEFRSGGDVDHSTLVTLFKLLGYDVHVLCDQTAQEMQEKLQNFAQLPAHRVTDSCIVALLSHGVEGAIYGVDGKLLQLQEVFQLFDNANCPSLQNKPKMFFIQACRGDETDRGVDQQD
T1 sequence (P42575 348-452 limits assumed): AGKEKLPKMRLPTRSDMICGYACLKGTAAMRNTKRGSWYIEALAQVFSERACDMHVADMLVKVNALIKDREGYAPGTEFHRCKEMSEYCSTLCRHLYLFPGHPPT
Protocol: Newly designed inhibitors (Ac-LDEAD(SEQ ID NO:7)-CHO, Ac-VDEAD(SEQ ID NO:1)-CHO . . . ) were compared to Ac-VDVAD(SEQ ID NO:9)-CHO in in vitro caspase-2 cleavage assay according to the following protocol (FIG. 8). Human recombinant caspases (25-50 U; QuantiZyme™ Assay System, BIOMOL, Plymouth, Pa., USA) were pre-incubated 30 min with inhibitors (0.005-2 μM) in final 100 μl final assay buffer (50 mM HEPES, pH 7.4, 100 mM NaCl, 0.1% CHAPS, 10 mM DTT, 1 mM EDTA, 10% glycerol) and then mixed with 200 μM of the fluorogenic caspase substrates (BIOMOL) Ac-VDVAD(SEQ ID NO:9)-AMC. An IC50 value corresponding to the concentration that could inhibit 50% of caspase activity was determined from the dose-response sigmoid curve. The cleavage of AMC-based substrates by human recombinant caspases 1-10 was measured after 2 h at 37° C. on a fluorescence microplate reader by monitoring emission at 510 nm upon excitation at 405 nm.

[3] = system: neonatal ischemic brain injury; assay: Perinatal transient unilateral focal ischemia model in 7 day-old rat pups; format: in vivo; conditions: for reduction of infarct volume: 48 h
Protocol: Newborn Wistar rats (dam plus 9 pups per litter) were obtained from Janvier (Le Genest-St-Isle, France) when the pups were 3-4 days of age. The pups were housed with their dam under a 12:12 h light-dark cycle with food and water freely available. Animal experimentation was conducted according to the French and European Community guidelines for the care and use of experimental animals. Rat pups were anesthetized with an intraperitoneal injection of chloral hydrate (350 mg/kg). Ischemia was performed in 7 day-old rats (17-21 g), as previously described (Renolleau et al., 1998). Anesthetized rats were positioned on their back and a median incision was made in the neck to expose the left common carotid artery. Rats were then placed on the right side and an oblique skin incision was made between the ear and the eye. After excision of the temporal muscle, the cranial bone was removed from the frontal suture to a level below the zygomatic arch. […] After this procedure, a clip was placed to occlude the left common carotid artery. Rats were then placed in an incubator to avoid hypothermia. After 50 min, the clip was removed. Carotid blood flow restoration was verified with the aid of a microscope. Neck and cranial skin incisions were then closed. During the surgical procedure, body temperature was maintained at 37-38° C. Pups were transferred in an incubator (32° C.) until recovery then after to their dams.
Compound was administered intraperitoneally or intraveinously at 1 h after ischemia (corresponding to the reperfusion). Control animals received an equivalent volume of vehicle required to solubilize the pentapeptidic caspase inhibitor. Rats were killed 48 hours after reperfusion and brains were removed. The infarct lesion (pale zone) was visually scored by an observer blinded to the treatment of animals. Brains without a clear ischemic pale zone were observed under a magnifying glass.
Sections from anterior striatum to posterior hippocampus (corresponding to plates 9 to 27 in Paxinos' rat brain atlas) were selected, taken at equally spaced 0.5-mm intervals. The lesion areas were measured on cresyl violet-stained sections using an image analyzer, and the distances between respective coronal sections were used to calculate the infarct volume.

Molecule: 2-Quinolinylcarbonyl-L-Valinyl-L-Aspartyl (methyl ester)-L-Vanilyl-L-Alaninyl-L-Aspartyl (methyl ester) 2,6-difluorophenyl ester [SEQ8]
Cresyl-violet staining intensity [1]: partially restored | abnormal nuclei in CA1 [1]: less abnormal nuclei | cells incorporating Fluorojade B in CA1 [1]: 10-20% | VDVAD-AMC cleavage by caspase-2 [2]: blocked | animals with partially or very marked reduced infarct ([3]; 1 mg/kg i.v. (FIG. 18) 1 h post-ischemia): ~50% | animals with partially or very marked reduced infarct ([3]; 0.1 or 1 mg/kg i.p. 1 h post-ischemia): more than 50% | reduction of infarct volume ([3]; single dose 1 mg/kg i.v. (FIG. 18) 1 h post-ischemia): at least 30% | reduction of infarct volume ([3]; single dose 0.1 or 1 mg/kg i.p. 1 h post-ischemia): 44-53%

Molecule: CC(=O)N[C@@H](CC(C)C)C(=O)N[C@@H](CC(=O)O)C(=O)N[C@@H](CCC(=O)O)C(=O)N[C@@H](CO)C(=O)N[C@H](C=O)CC(=O)O [Compound 1, Ac-LDESD-cho, reference compound] (Ac-LDESD-aldehyde)
Group (pattern of caspase-2 inhibition curve) [2]: 2/3 | IC50 [2]: 300 ± 20 nM

Molecule: CC(=O)N[C@@H](Cc1ccccc1)C(=O)N[C@@H](CC(=O)O)C(=O)N[C@@H](CCC(=O)O)C(=O)N[C@@H](CO)C(=O)N[C@H](C=O)CC(=O)O [Compound 3, Ac-FDESD(SEQ ID NO:6)-cho] (Ac-FDESD-aldehyde)
Group (pattern of caspase-2 inhibition curve) [2]: 3

Molecule: CC(=O)N[C@H](C(=O)N[C@@H](CC(=O)O)C(=O)N[C@@H](CCC(=O)O)C(=O)N[C@@H](CO)C(=O)N[C@H](C=O)CC(=O)O)C(C)C [Compound 7, Ac-VDESD(SEQ ID NO:4)-cho] (Ac-VDESD-aldehyde)
Group (pattern of caspase-2 inhibition curve) [2]: 3

Next, values leading:

Group (pattern of caspase-2 inhibition curve) [2]: 3
Molecule: CC(=O)N[C@@H](CC(C)C)C(=O)N[C@@H](CC(=O)O)C(=O)N[C@@H](CCC(=O)O)C(=O)NCC(=O)N[C@H](C=O)CC(=O)O [Compound 26, Ac-LDEGD(SEQ ID NO:2)-cho] (Ac-LDEGD-aldehyde)

Group (pattern of caspase-2 inhibition curve) [2]: 3 | IC50 [2]: 300 ± 5 nM
Molecule: CC(=O)N[C@@H](CC(C)C)C(=O)N[C@@H](CC(=O)O)C(=O)N[C@@H](CCC(=O)O)C(=O)N[C@@H](CCCCN)C(=O)N[C@H](C=O)CC(=O)O [Compound 27, Ac-LDEKD(SEQ ID NO:5)-cho] (Ac-LDEKD-aldehyde)

VDVAD-AMC cleavage by caspase-2 [2]: blocked
Molecule: Z-VDVAD(SEQ ID NO:9)-FMK ({code Z}-VDVAD-CH2F; reading uncertain) [reference compound]

VDVAD-AMC cleavage by caspase-2 [2]: not
Molecule: z-LEHD-fmk ({code Z}-LEHD-CH2F; reading uncertain; also: printed as z-LEHD-fmk) [reference compound]
